Measurements taken from patent publication US6218393A, “Anthranilic acid derivatives as multi drug resistance modulators” (priority 1997, dated 2001).
pIC50: −log10 of the molar value.

Experiments:
AR 1.0 cells [1] = assay: Potentiation of doxorubicin toxicity: proliferation assay (sulphorhodamine B); assay type: cell-based, mouse
Text: (a) Selected compounds of formula (I) were examined for their ability to potentiate the toxicity of doxorubicin in AR 1.0 cells.

AR 1.0 cells [2] = assay: Drug accumulation assay: daunorubicin accumulation in AR 1.0 cells; assay type: cell-based; settings: Mus musculus, 100% = accumulation with verapamil 100 μM, 1 hr, 37° C.
Method in brief: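 AR 1.0 is the MDR-resistant subline of EMT6 mouse mammary carcinoma, grown in RPMI 1640 with 10% foetal calf serum and 2 mM glutamine at 37 °C, 5% CO2. Cells were seeded 48 h before the daunorubicin accumulation assay.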

AR 1.0 cells [3] = assay: Potentiation index with doxorubicin titration; assay type: cell-based, mouse; settings: for Potentiation Index at RMA concentration 100 nM: Table C2, RMA 100 nM; for Potentiation Index at RMA concentration 300 nM: Table C2, RMA 300 nM; for Potentiation Index at RMA concentration 10 nM: Table C2, RMA 10 nM; for Potentiation Index at RMA concentration 30 nM: Table C2, RMA 30 nM; for Potentiation Index at RMA concentration 500 nM: Table C2, RMA 500 nM
Method in brief: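 MDR-resistant mouse EMT6 subline AR 1.0 grown four days with a doxorubicin titration (0.263 nM-17.24 μM) plus a fixed compound concentration; proliferation by sulphorhodamine B. Potentiation index derived from doxorubicin IC50 alone versus with compound.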

[4] = Mus musculus, 96 h, compound alone, four day proliferation, read-out: Compound Toxicity (IC50)
[5] = with fixed doxorubicin 0.34 μm, four days, 5760 min, read-out: Toxicity with Cytotoxic Agent (IC50)

| pIC50 (AR 1.0 cells [2]) | SMILES | pIC50 (AR 1.0 cells [1]; [4]) | pIC50 (AR 1.0 cells [1]; [5]) | Potentiation Index at RMA concentration 100 nM (AR 1.0 cells [3]) | Potentiation Index at RMA concentration 300 nM (AR 1.0 cells [3]) | Potentiation Index at RMA concentration 10 nM (AR 1.0 cells [3]) | Potentiation Index at RMA concentration 30 nM (AR 1.0 cells [3]) | Potentiation Index at RMA concentration 500 nM (AR 1.0 cells [3]) |
| --- | --- | --- | --- | --- | --- | --- | --- | --- |
| 6.00 | COc1cc2c(cc1OC)CN(CCc1ccc(NC(=O)c3cc(O)ccc3NC(=O)c3cnc4ccccc4n3)cc1)CC2 [compound 9554, Quinoxaline-2-carboxylic acid (2-{4-[2-(6,7-dimethoxy-3,4-dihydro-1H-isoquinolin-2-yl)-ethyl]-phenylcarbamoyl}-4-hydroxy-phenyl)-amide] | 5.52 | 7.30 | 90 | – | – | – | – |
| 6.35 | COc1cc2c(cc1OC)CN(CCc1ccc(NC(=O)c3ccccc3NC(=O)c3ccc(Cl)c(Cl)c3)cc1)CC2 [compound 9536, 2-(3,4-Dichloro-benzoylamino)-N-{4-[2-(6,7-dimethoxy-3,4-dihydro-1H-isoquinolin-2-yl)-ethyl]-phenyl}-benzamide] | 5.58 | 7.82 | 32 | 128 | – | – | – |
| 7.30 | COc1cc2c(cc1OC)CN(CCc1ccc(NC(=O)c3ccccc3NC(=O)c3cnc4ccccc4c3)cc1)CC2 [compound 9544, Quinoline-3-carboxylic acid (2-{4-[2-(6,7-dimethoxy-3,4-dihydro-1H-isoquinolin-2-yl)ethyl]-phenylcarbamoyl}-phenyl)-amide] | 5.72 | 8.11 | 120 | 150 | 15 | 67 | – |
| 6.52 | COc1cc2c(cc1OC)CN(CCNC(=O)c1ccc(F)cc1NC(=O)c1ccc(C(C)C)cc1)CC2 [compound 9349, 2-(4-Isopropyl-benzoylamino)-N-[2-(6,7-dimethoxy-3,4-dihydro-1H-isoquinolin-2-yl)-ethyl]-4-fluoro-benzamide] | 5.26 | 6.85 | – | – | – | – | 22 |
| 5.60 | COc1cc2c(cc1OC)CN(CCNC(=O)c1cccc(O)c1NC(=O)c1ccc(C(C)C)cc1)CC2 [compound 9424, 2-(4-Isopropyl-benzoylamino)-N-[2-(6,7-dimethoxy-3,4-dihydro-1H-isoquinolin-2-yl)-ethyl]-3-hydroxy-benzamide] | 4.41 | 5.59 | – | – | – | – | 37 |
| 6.70 | COc1cc2c(cc1OC)CN(CCc1ccc(NC(=O)c3c(F)cccc3NC(=O)c3cnc4ccccc4n3)cc1)CC2 [compound 9564, Quinoxaline-2-carboxylic acid (2-{4-[2-(6,7-dimethoxy-3,4-dihydro-1H-isoquinolin-2-yl)-ethyl]-phenylcarbamoyl}-3-fluoro-phenyl)-amide] | 6.40 | 8.10 | 129 | – | – | – | – |
| 7.85 | COc1cc2c(cc1OC)CN(CCc1ccc(NC(=O)c3cc(Cl)ccc3NC(=O)c3cnc4ccccc4c3)cc1)CC2 [compound 9593, Quinoline-3-carboxylic acid (2-{4-[2-(6,7-dimethoxy-3,4-dihydro-1H-isoquinolin-2-yl)-ethyl]-phenylcarbamoyl}-4-chloro-phenyl)-amide] | 5.15 | – | – | – | 6 | 57 | – |
| 5.70 | COc1cc2c(cc1OC)CN(CCc1ccc(NC(=O)c3ccccc3NC(=O)c3cccc(C)c3)cc1)CC2 [compound 9503, 2-(3-Methyl-benzoylamino)-N-{4-[2-(6,7-dimethoxy-3,4-dihydro-1H-isoquinolin-2-yl)-ethyl]-phenyl}-benzamide] | 5.46 | 7.05 | – | 36 | – | – | 77 |
| 7.26 | COc1cc2c(cc1OC)CN(CCc1ccc(NC(=O)c3ccc(C(F)(F)F)cc3NC(=O)c3cnc4ccccc4n3)cc1)CC2 [compound 9561, Quinoxaline-2-carboxylic acid (2-{4-[2-(6,7-dimethoxy-3,4-dihydro-1H-isoquinolin-2-yl)-ethyl]-phenylcarbamoyl}-5-trifiuoromethyl-phenyl)-amide] | 4.89 | 8.00 | 100 | – | 14 | 60 | – |
| 5.74 | COc1cc2c(cc1OC)CN(CCc1ccc(NC(=O)c3ccccc3NC(=O)c3ccc(C4CCCCC4)cc3)cc1)CC2 [compound 9461, 2-(4-Cyclohexyl-benzoylamino)-N-{4-[2-(6,7-dimethoxy-3,4-dihydro-1H-isoquinolin-2-yl)-ethyl]-phenyl}-benzamide] | 5.12 | 6.52 | – | 13 | – | – | 30 |
| 6.92 | COc1cc2c(cc1OC)CN(CCc1ccc(NC(=O)c3ccccc3NC(=O)c3ccc(F)cc3)cc1)CC2 [compound 9501, 2-(4-Fluoro-benzoylamino)-N-{4-[2-(6,7-dimethoxy-3,4-dihydro-1H-isoquinolin-2-yl)-ethyl]-phenyl}-benzamide] | 5.52 | 7.40 | 69 | 183 | – | 1.9 | – |
| 8.02 | COc1cc2c(cc1OC)CN(CCc1ccc(NC(=O)c3cc(OC)c(OC)cc3NC(=O)c3cnc4ccccc4n3)cc1)CC2 [compound 9573, Quinoxaline-2-carboxylic acid (2-{4-[2-(6,7-dimethoxy-3,4-dihydro-1H-isoquinolin-2-yl)-ethyl]-phenylcarbamoyl}-4,5-dimethoxy-phenyl)-amide] | 5.40 | – | 100 | – | 83 | 94 | – |
| 5.89 | CCCCCc1ccc(C(=O)Nc2ccccc2C(=O)NCCN2CCc3cc(OC)c(OC)cc3C2)cc1 [compound 9395, 2-(4-Pentyl-benzoylamino)-N-[2-(6,7-dimethoxy-3,4-dihydro-1H-isoquinolin-2-yl)-ethyl]-benzamide] | 5.05 | 6.82 | – | – | – | – | 21 |
| 7.28 | COc1cc2c(cc1OC)CN(CCc1ccc(NC(=O)c3ccccc3NC(=O)c3cnc(C)cn3)cc1)CC2 [compound 9527, 5-Methyl-pyrazine-2-carboxylic acid (2-{4-[2-(6,7-dimethoxy-3,4-dihydro-1H-isoquinolin-2-yl)-ethyl]-phenylcarbamoyl}-phenyl)-amide] | 5.35 | 8.15 | 50 | 103 | 1.5 | 11 | 120 |
| 6.41 | COc1cc2c(cc1OC)CN(CCNC(=O)c1ccccc1NC(=O)c1ccc3ccccc3c1)CC2 [compound 9295, Naphthalene-2-carboxylic acid {2-[2-(6,7-dimethoxy-3,4-dihydro-1H-isoquinolin-2-yl)-ethylcarbamoyl]-phenyl}-amide] | 4.40 | 6.22 | – | 16 | – | – | – |
| 6.40 | CCCc1ccc(C(=O)Nc2ccccc2C(=O)NCCN2CCc3cc(OC)c(OC)cc3C2)cc1 [compound 9297, 2-(4-Propyl-benzoylamino)-N-[2-(6,7-dimethoxy-3,4-dihydro-1H-isoquinolin-2-yl)-ethyl]-benzamide] | 4.74 | 6.48 | – | 16 | – | – | – |
| 6.40 | COc1cccc(C(=O)Nc2ccccc2C(=O)Nc2ccc(CCN3CCc4cc(OC)c(OC)cc4C3)cc2)c1 [compound 9517, 2-(3-Methoxy-benzoclamino)-N-{4-[2-(6,7-dimethoxy-3,4-dihydro-1H-isoquinolin-2-yl)-ethyl]-phenyl}-benzamide] | 5.70 | 7.30 | – | 40 | – | – | 120 |
| 7.40 | COc1cc2c(cc1OC)CN(Cc1ccc(NC(=O)c3ccccc3NC(=O)c3cnc4ccccc4c3)cc1)CC2 [compound 9585, Quinoline-3-carboxylic acid {2-[4-(6,7-dimethoxy-3,4-dihydro-1H-isoquinolin-2-ylmethyl)-phenylcarbamoyl]-phenyl}-amide] | 5.04 | – | – | – | 1.3 | 7.2 | – |
| 6.52 | COc1ccc(C(=O)Nc2ccccc2C(=O)Nc2ccc(CCN3CCc4cc(OC)c(OC)cc4C3)cc2)cc1 [compound 9518, 2-(4-Methoxy-benzoylamino)-N-{4-[2-(6,7-dimethoxy-3,4-dihydro-1H-isoquinolin-2-yl)-ethyl]-phenyl}-benzamide] | 5.82 | 7.72 | – | 120 | – | – | 240 |
| 7.92 | COc1cc2c(cc1OC)CN(CCc1ccc(NC(=O)c3ccccc3NC(=O)c3ccc(C)nc3)cc1)CC2 [compound 9557, N-(2-{4-[2-(6,7-Dimethoxy-3,4-dihydro-1H isoquinolin-2-yl)-ethyl]-phenylcarbamoyl}phenyl)-6-methyl-nicotinamide] | 5.05 | 7.70 | 100 | – | 1.2 | – | – |
